Test results from US20080039450A1, “Compounds” (priority 2006, published 2008).

Target: T1, MNK2a (Homo sapiens, UniProt Q9HBH9)
T1 construct: expressed in transfected cells; host or cells: HEK293 cells, transient co-transfection with p-eIF4E and p-MNK2a (FuGene6)
Experiment: Cell assay of MNK2a: phosphorylation of downstream substrate eIF4E in HEK293 cells transfected with MNK2a and eIF4E (Western blot)
Type: cell-based
Details: HEK293 cells over-expressing MNK2a and eIF4E; 60 min incubation; phospho-eIF4E band at 28 kDa by densitometry
Protocol: Analysis of the Effect of MNK-Inhibitors on Phosphorylation of the DownStream Substrate eIF4E
According to the literature el F4E is a unique substrate for MNK1 and MNK2. The purpose of the analysis was to over-express MNK2a together with eIF4E and subsequently incubate with substances of the invention. This would inhibit the MNK2a activity and thereby the phosphorylation of eIF 4E.
Day 1 HEK293 cells were plated in a T162 cm2-flask.
Day 2 Transient transfection with p-elF4E and p-MNK2a. […]
Protein Determination: • The cell lysates were thawed by putting the plates on ice, transferred to Eppendorf tubes and centrifuged at 1300 g, +4° C., 10 min. • 12.5 μl of the supernatant was transferred directly to the plate for protein determination (->dil 1:2) and the rest of the supernatant to new pre-cold tubes and store in −70° C. until assayed. • Day 5-6 Western Blot analysis of cell lysates, according to standard methods, using a specific phospho-elF4E antibody. • To quantify the effect of the substance on the phosphorylation of eIF4E, developed x-ray film from the Western blot analysis was scanned using a densitometer and Image Gauge 4.0 software. The detected band at 28 kDa with 0 μM substance was set to 100%. The density of the band at 28 kDa with the different concentrations of the substance was then analysed. […]

T1 sequence (Q9HBH9 whole entry): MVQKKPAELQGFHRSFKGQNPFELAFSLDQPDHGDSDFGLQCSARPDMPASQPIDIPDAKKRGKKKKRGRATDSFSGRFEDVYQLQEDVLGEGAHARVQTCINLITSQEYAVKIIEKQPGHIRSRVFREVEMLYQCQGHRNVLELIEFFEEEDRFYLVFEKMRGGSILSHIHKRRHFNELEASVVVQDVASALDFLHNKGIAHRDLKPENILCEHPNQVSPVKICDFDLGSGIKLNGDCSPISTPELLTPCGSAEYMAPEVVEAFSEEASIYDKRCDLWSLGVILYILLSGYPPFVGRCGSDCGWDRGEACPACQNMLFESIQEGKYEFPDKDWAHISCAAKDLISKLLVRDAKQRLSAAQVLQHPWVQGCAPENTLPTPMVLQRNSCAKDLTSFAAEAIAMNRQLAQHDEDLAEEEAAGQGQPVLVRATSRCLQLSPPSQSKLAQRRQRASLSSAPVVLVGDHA

Row | SMILES | IC50 [nM]
1 | O=C(c1ccc(-c2cncc(-c3ccc(O)cc3)n2)cc1)N1CCOCC1 [Example 77, 4-{6-[4-(morpholin-4-ylcarbonyl)phenyl]pyrazin-2-yl}phenol] | 900
2 | Nc1ncc(-c2ccc(C(=O)N3CCOCC3)cc2F)nc1-c1ccc(O)cc1 [Example 6, 4-{3-amino-6-[2-fluoro-4-(morpholin-4-ylcarbonyl)phenyl]pyrazin-2-yl}phenol] | 1900
